Holding throughout (test): MIC determination
Type in all cases: cell-based

Test [1] deals with Ab strain #311 (CDC and FDA AR Bank). As to conditions: Acinetobacter baumannii; Ab AR Bank #311. The method, then: (§1) All bacterial strains listed above were stored at −80° C. All strains were streaked on Mueller-Hinton (MH) plates and allowed to grow at 37° C. overnight. Enough colonies were scraped from the plate and suspended in MH broth with vortexing to reach an attenuance at 600 nm (OD600) of ˜0.5. The resulting culture was diluted 1:1000 and added to the prepared serially doubly diluted compound solutions in 96-well plates. For M. smegmatis, a 1:100 dilution of the bacteria was done in MH. All MIC values were determined using 96-well plates with low evaporation seals at least in duplicate. For each row, one well was reserved for sterile control (which consisted of 200 μL of MH medium) and another well was reserved for growth control (which consisted of 100 μL of MH medium seeded with 100 μL of bacterial culture).
(§2) Then all 46 compounds were tested against a broad panel of all 41 Ab strains from the CDC and FDA Antibiotic Resistance (AR) Isolate Bank (Table 2; data shown for 2 representative compounds), which were all highly multidrug-resistant strains, including those resistant to colistin. […] The activity of the monohydrazides was not dependent on the extent (number of resistance mutations) or severity (antibiotic MIC) of resistance. All conclusions made from Table 1 remained valid for all compounds against these 41 additional Ab strains. […] This mechanism of action will be elucidated in the proposed studies.

Test [2] has as its system Ab strain #294 (CDC and FDA AR Bank). Conditions: Acinetobacter baumannii; Ab AR Bank #294. The procedure:
as §1, §2

Test [3] relates to Ab strain #295 (CDC and FDA AR Bank). Conditions: Acinetobacter baumannii; Ab AR Bank #295. The method, then: as §1, §2
In test [4] the test system is Ab strain #273 (CDC and FDA AR Bank). Conditions: Acinetobacter baumannii; Ab AR Bank #273. The procedure: as §1, §2
Test [5] relates to Ab strain #305 (CDC and FDA AR Bank). Conditions: Acinetobacter baumannii; Ab AR Bank #305. The method, then:
as §1, §2

The test system of test [6] is Ab strain #278 (CDC and FDA AR Bank). As to conditions: Acinetobacter baumannii; Ab AR Bank #278. The procedure: as §1, §2
Test [7] relates to Ab strain #309 (CDC and FDA AR Bank). Conditions: Acinetobacter baumannii; Ab AR Bank #309. The procedure:
as §1, §2

The test system of test [8] is Ab strain #304 (CDC and FDA AR Bank). Conditions: Acinetobacter baumannii; Ab AR Bank #304. The method, then: as §1, §2
Test [9] has as its system Ab strain #279 (CDC and FDA AR Bank). As to conditions: Acinetobacter baumannii; Ab AR Bank #279. The method, then: as §1, §2
Test [10] concerns Ab strain #298 (CDC and FDA AR Bank). Conditions: Acinetobacter baumannii; Ab AR Bank #298. The method, then:
as §1, §2

The subject of test [11] is Ab strain #306 (CDC and FDA AR Bank). Conditions: Acinetobacter baumannii; Ab AR Bank #306. The method, then: as §1, §2
The test system of test [12] is Ab strain #291 (CDC and FDA AR Bank). As to conditions: Acinetobacter baumannii; Ab AR Bank #291. The procedure: as §1, §2
Test [13] relates to Ab strain #277 (CDC and FDA AR Bank). As to conditions: Acinetobacter baumannii; Ab AR Bank #277. The method, then: as §1, §2
Test [14] concerns Ab strain #280 (CDC and FDA AR Bank). As to conditions: Acinetobacter baumannii; Ab AR Bank #280. The procedure:
as §1, §2

In test [15] the test system is Ab strain #310 (CDC and FDA AR Bank). Conditions: Acinetobacter baumannii; Ab AR Bank #310. The procedure: as §1, §2
Test [16] relates to Ab strain #301 (CDC and FDA AR Bank). As to conditions: Acinetobacter baumannii; Ab AR Bank #301. The procedure: as §1, §2
The subject of test [17] is Ab strain #290 (CDC and FDA AR Bank). Conditions: Acinetobacter baumannii; Ab AR Bank #290. The procedure: as §1, §2
Test [18] concerns Ab strain #302 (CDC and FDA AR Bank). Conditions: Acinetobacter baumannii; Ab AR Bank #302. The method, then:
as §1, §2

For test [19], the system named is Ab strain #289 (CDC and FDA AR Bank). Conditions: Acinetobacter baumannii; Ab AR Bank #289. The procedure:
as §1, §2

Test [20] has as its system Ab strain #276 (CDC and FDA AR Bank). As to conditions: Acinetobacter baumannii; Ab AR Bank #276. The method, then:
as §1, §2

Test [21] has as its system Ab strain #313 (CDC and FDA AR Bank). Conditions: Acinetobacter baumannii; Ab AR Bank #313. The procedure:
as §1, §2

Test [22] deals with Ab strain #299 (CDC and FDA AR Bank). As to conditions: Acinetobacter baumannii; Ab AR Bank #299. The method, then:
as §1, §2

Test [23] concerns Ab strain #274 (CDC and FDA AR Bank). As to conditions: Acinetobacter baumannii; Ab AR Bank #274. The procedure:
as §1, §2

Each structure is given as a SMILES string. Converted amounts (≈) assume the structure as drawn.

The record followed here is patent US20260041683A1, “Compounds with Anti-Acinetobacter Baumannii Activity” (University of Kentucky Research Foundation, priority 2022, published 2026).

As a reminder, the MIC is the smallest concentration in the dilution series that meets the test's criterion for growth inhibition. Take `O=C(NNc1ccc(Cl)cc1)c1ccc(F)cn1` [Compound 3e]: the minimum inhibitory concentration (MIC) is 0.5 µg/mL (≈ 1.88 µM) in test [1]; 0.25 µg/mL (≈ 0.941 µM) in [2]; 0.06 µg/mL (≈ 0.226 µM) in test [3]; 0.5 µg/mL (≈ 1.88 µM) in test [4]; 0.5 µg/mL (≈ 1.88 µM) in [5]; 0.25 µg/mL (≈ 0.941 µM) in test [6]. Moreover, the minimal inhibitory concentration (MIC) in test [7] was 0.25 µg/mL (≈ 0.941 µM); in test [8], 0.5 µg/mL (≈ 1.88 µM); in test [9], 0.25 µg/mL (≈ 0.941 µM); in test [10], 0.25 µg/mL (≈ 0.941 µM); in [11], 0.13 µg/mL (≈ 0.489 µM); in test [12], 0.06 µg/mL (≈ 0.226 µM). The minimum inhibitory concentration (MIC) was 0.06 µg/mL (≈ 0.226 µM) in test [13]; 0.5 µg/mL (≈ 1.88 µM) in test [14]; 0.25 µg/mL (≈ 0.941 µM) in test [15]; 0.25 µg/mL (≈ 0.941 µM) in [16]; 0.125 µg/mL (≈ 0.47 µM) in [17]; 0.13 µg/mL (≈ 0.489 µM) in [18]. Also, the MIC was determined as 0.25 µg/mL (≈ 0.941 µM) in test [19]; 0.03 µg/mL (≈ 0.113 µM) in test [20]; 0.25 µg/mL (≈ 0.941 µM) in test [21]; 0.13 µg/mL (≈ 0.489 µM) in test [22]; 0.5 µg/mL (≈ 1.88 µM) in [23].
Consider `O=C(NNc1cccc(F)c1)c1cnccn1` [Compound 9a], for which the MIC was 0.5 µg/mL (≈ 2.15 µM) in test [1]; at most 0.13 µg/mL in [2]; at most 0.13 µg/mL in [3]; 1 µg/mL (≈ 4.31 µM) in test [4]; 0.5 µg/mL (≈ 2.15 µM) in [5]; 1 µg/mL (≈ 4.31 µM) in test [6]. Also, the MIC in test [7] was 0.5 µg/mL (≈ 2.15 µM); in test [8] it was at most 0.13 µg/mL; in [9], 1 µg/mL (≈ 4.31 µM); in test [10], 0.5 µg/mL (≈ 2.15 µM); in [11], 0.5 µg/mL (≈ 2.15 µM); in [12], 0.25 µg/mL (≈ 1.08 µM). Also, the MIC was determined as 1 µg/mL (≈ 4.31 µM) in test [13]; 1 µg/mL (≈ 4.31 µM) in test [14]; 0.5 µg/mL (≈ 2.15 µM) in [15]; 0.25 µg/mL (≈ 1.08 µM) in [16]; 1 µg/mL (≈ 4.31 µM) in [17]; 0.25 µg/mL (≈ 1.08 µM) in test [18]. In addition, the minimal inhibitory concentration (MIC) in test [19] is 0.5 µg/mL (≈ 2.15 µM); in [20], 0.5 µg/mL (≈ 2.15 µM); in [21], 0.25 µg/mL (≈ 1.08 µM); in test [22] it was 0.25 µg/mL (≈ 1.08 µM); in [23] it was 1 µg/mL (≈ 4.31 µM).
